Entries after “also recorded” stand apart in the source; their conditions may differ.
Key:
[1] = tested on: MSC/HA pellet; experiment: In vivo ectopic bone-formation assay; settings: MSCs with 20 μM OA, subcutaneous in nude mice, six weeks
Protocol: In vivo ectopic bone-formation assay: All animal studies were reviewed and approved by the Animal Ethics Committee of Louisiana State University Health Sciences Center. 1.0×10^6 total MSCs were re-suspended in 80 μl of MSC growth media containing 20 μM OA and gently mixed with 50 mg of hydroxyapatite (HA) powder (Himed). The composites were then centrifuged for two minutes at 200 rpm to form a MSC/HA pellet. For ectopic bone formation surgery, ten 8-week-old NOD.CB17^−Prkdescid/J mice (Charles River) (up to 2 implants for each animal) were anesthetized and the dorsal skin was cleaned with 70% ethanol. Two incisions of ˜1 cm in length were performed on the opposite flanks of the back, and then a pocket was formed by blunt dissection. Finally the MSC/HA pellets were implanted. Six weeks post-surgery, transplanted BMSC/HA pellets were harvested for gross observation and Masson's trichrome staining. […] All animal work was performed in accordance with institution approved guidelines.
MSCs were first dissolved in PBS containing 20 μM OA, then mixed with HA ceramic powder, and centrifuged into MSC/HA pellets prior to subcutaneous transplantation into nude mice. After six weeks of growth and differentiation, the pellets were harvested for gross observation, Masson's trichrome and immunohistochemistry staining (FIG. 4A).

[2] = tested on: Notch signaling; experiment: Notch responsive RBPJ-Luc luciferase assay; type: cell-based, human; settings: MSCs, 0, 10 μM and 20 μM OA, 48 hours
Protocol: Luciferase assay: 80% confluence MSCs were transfected with Notch responsive RBPJ-Luc and SV40-Renilla-Luc (Promega) in the presence of Lipofectamine 2000 (Invitrogen) followed by OA treatment. At 24 hours after transfection and treatment, lysates were analyzed with a Dual Luciferase Assay Kit (Promega).
The inventor has identified the RBPjk-dependent Notch pathway as an important inducer of MSC proliferation, and an inhibitor of MSC differentiation during mouse limb-bud and postnatal bone development. In this study, the inventor further tested whether Notch signaling is also involved in OA-mediated osteogenesis. To do so, MSCs were first transfected with the RBPjk-dependent NOTCH-responsive luciferase reporter, and then cultured in medium containing 0, 10 μM and 20 μM OA for 48 hours. […] Moreover, down-regulation of Notch target gene Hes1 expression was also observed in OA treated MSCs (FIG. 1E), which further confirmed the inhibitory effect of OA on Notch signaling.

[3] = tested on: MSCs; experiment: MSC osteogenic differentiation assay, real time RT-PCR of osteogenic markers; type: cell-based, human; settings: OA 10 and 20 μM, seven days, vs DMSO treated control MSCs
Protocol: (§1) Cell culture and treatment: The human MSCs were purchased from Lonza. Oleanolic acid was obtained from Sigma-Aldrich (Aldrich-5504). A 100 mM solution of OA was prepared in dimethyl sulfoxide (DMSO), and all test concentrations were prepared by diluting the stock solution in cell culture medium. […] After expansion, cells were exposed to media containing OA and/or BMP2 for certain days. […] At the end, cells were harvested at different time points for analyses as described below.
(§2) MSC osteogenic differentiation assay: Osteogenic differentiation assays of MSCs were performed using the Osteogenic differentiation bulletKit® (Lonza). MSCs were cultured at 200,000 cells/well in 6-well plates to confluence. Stem cell growth media was then replaced with osteogenic media supplied with or without OA and BMP2. After seven days of culture, alkaline phosphatase (ALP) staining, RNA, and protein isolation were performed as described in our published protocols.
(§3) Real time RT-PCR: cDNA was synthesized from 1 μg total RNA using the SuperScript III reverse transcriptase kit (Invitrogen) in a final volume of 20 μl. Primers were designed with the IDT SCI primer design tool (Integrated DNA Technologies, San Diego, Calif.). RT-PCR experiments were performed with a Bio-Rad C1000 thermal cycler (Bio-Rad, Hercules, Calif.), and real-time PCR experiments were performed with an ABI prism 7500 (Applied Biosystems, Grand Island, N.Y.) in triplicate. Sequence for each primer pair were: Hes1, forward primer 5′-[…]-3′, reverse primer 5′-[…]-3′; ALP, forward primer 5′-[…]-3′, reverse primer 5′-[…] […]-3′; Runx2, forward primer 5′-[…]-3′, reverse primer 5′-[…]-3′; Osteocalcin (OC), forward primer 5′-[…]-3′, reverse primer 5′-[…]-3′; Osteopontin (OPN), forward primer 5′-[…]-3′, reverse primer 5′-[…]-3′; Type I collagen (Col1a1), forward primer 5′-[…]-3′, reverse primer 5′-[…]-3′; β-actin, forward primer 5′-[…]-3′; reverse primer 5′-[…] […]-3′. Samples were analyzed in triplicate, and the raw data consisted of PCR cycle numbers required to reach a fluorescence threshold level. The relative expression level of target genes was normalized to (β-actin gene.

[4] = tested on: NICD; experiment: Western blot of NICD; type: cell-based, human; settings: OA treated MSCs, day 3
[5] = tested on: normal cells; settings: cited from earlier work
[6] = tested on: phospho-smad1/5/8; experiment: RT-PCR and western blot of phospho-smad1/5/8; type: cell-based, human; settings: MSCs
Protocol: Real time RT-PCR: cDNA was synthesized from 1 μg total RNA using the SuperScript III reverse transcriptase kit (Invitrogen) in a final volume of 20 μl. Primers were designed with the IDT SCI primer design tool (Integrated DNA Technologies, San Diego, Calif.). RT-PCR experiments were performed with a Bio-Rad C1000 thermal cycler (Bio-Rad, Hercules, Calif.), and real-time PCR experiments were performed with an ABI prism 7500 (Applied Biosystems, Grand Island, N.Y.) in triplicate. […] Samples were analyzed in triplicate, and the raw data consisted of PCR cycle numbers required to reach a fluorescence threshold level. The relative expression level of target genes was normalized to (β-actin gene.
Western blot analysis: MSCs cultured with or without OA and BMP2 treatment were lysed in RIPA buffer (10 mM Tris-HCI, 1 mM EDTA, 1 sodium dodecyl sulfate [SDS], 1% NP-40, 1:100 proteinase inhibitor cocktail, 50 mM β-glycerophosphate, 50 mM sodium fluoride). The samples were separated on a 10% SDS polyacrylamide gel and transferred to polyvinylidene difluoride (PVDF) membranes with a semi-dry transfer apparatus (Bio-Rad). The membranes were blotted with 5% dehydrated milk for two hours, and then, incubated with primary antibodies overnight. […]

[7] = tested on: Notch target gene Hes1; experiment: Real time PCR of Notch target gene Hes1; type: cell-based, human; settings: OA treated MSCs, day 7, vs DMSO treated control
Protocol: as §3

[8] = tested on: MSCs; experiment: Cell viability assay (MTT); type: cell-based, human; settings: 12 hours
Protocol: as §1
Cell viability assay: MSC viability was measured using MTT (3-(4, 5-dimethylthiazole-2-yl)-2, 5-diphenyl tetrazolium bromide) based in vitro toxicology assay kit (Sigma, St. Louis, Mo., USA). Briefly, cells were seeded in 96-well plates. After growing into 50-60% confluence, cells were exposed to various concentrations of OA for 12 hours, then the supernatant was discarded, and cells were treated with 0.5 mg/ml MTT staining solution for another four hours. After incubation, the supernatant was removed and 50 μl of solubilization buffer provided by the Sigma kit with 0.5% DMSO was added. DMSO was added to ensure total solubility of the formazan crystals. Plates were shaken for two minutes, and the absorbance recorded at 590 nm on an automated microtiter plate reader. The percent viability was expressed as a percentage of that in the vehicle control (with subtraction of background absorbance).

[9] = tested on: MSCs; experiment: Lentivirus-mediated Notch activation (NICD1 overexpression) in OA treated MSCs; type: cell-based, human
[10] = tested on: MSCs; experiment: MSC osteogenic differentiation assay, ALP staining; type: cell-based, human
Protocol: Cell culture and treatment: The human MSCs were purchased from Lonza. Oleanolic acid was obtained from Sigma-Aldrich (Aldrich-5504). A 100 mM solution of OA was prepared in dimethyl sulfoxide (DMSO), and all test concentrations were prepared by diluting the stock solution in cell culture medium. […] At the end, cells were harvested at different time points for analyses as described below.
as §2, with “Stem cell growth media was then replaced with osteogenic media supplied with or without OA and BMP2.” left out

CC1(C)CC[C@]2(C(=O)O)CC[C@]3(C)C(=CC[C@@H]4[C@@]5(C)CC[C@H](O)C(C)(C)[C@@H]5CC[C@]43C)[C@@H]2C1 [OA, (3β)-3-hydroxyolean-12-en-28-oic acid]
increase of type I collagen bone matrix (blue) in the pellet area vs untreated MSCs [1]: approximately 4 fold | pellet area stained blue (type I collagen bone matrix, Masson's trichrome) [1]: 30% | Notch-responsive luciferase activity [2]: inhibited Notch-responsive luciferase activity dose dependently | ALP expression (early osteogenic marker) [3]: enhanced expression | Col1a1 expression (early osteogenic marker) [3]: enhanced expression | OC expression (later osteogenic marker) [3]: remained unchanged | OPN expression (later osteogenic marker) [3]: remained unchanged | Runx2 expression (early osteogenic marker) [3]: enhanced expression | expression of NICD (western blot) [4]: significantly reduced | cytotoxicity to normal cells [5]: no significant cytotoxicity | gene expression of p-smad1/5/8 (RT-PCR) ([6]; day 7, OA 20 μM, BMP2 200 ng/ml): did not show any effects | p-smad1/5/8 expression (western blot) ([6]; day 7, control vs OA treated): no significant difference | Notch target gene Hes1 expression [7]: down-regulation | cell death in cell viability assay ([8]; OA 10 μM): no cell death | cell death in cell viability assay ([8]; OA 20 μM): no cell death | cell death in cell viability assay ([8]; OA 30 μM): significant cell death | OA-induced ALP staining under overexpression of NICD1 ([9]; NICD1 lentivirus infected MSCs, OA, day 7): totally blocked | expression of ALP, Runx2 and Col1a1 in Notch activated MSCs with OA ([9]; NICD1 lentivirus, RT-PCR, day 7, vs control or OA treated MSCs): significantly reduced | ALP activity (ALP staining) ([10]; OA 20 μM and/or BMP2 200 ng/ml, seven days, osteogenic medium): significant increase; also recorded: relative weak ALP staining | ALP staining (MSC osteogenic differentiation) ([10]; OA 10 and 20 μM, seven days): dose dependent increase | osteogenic nodule formation ([10]; OA treated MSCs at day 7, maximal staining at 20 μM): increase in osteogenic nodule formation

Reference: US20190274981A1, “OLEANOLIC ACID ENHANCES MESENCHYMAL STROMAL CELL OSTEOGENIC POTENTIAL BY INHIBITION OF NOTCH SIGNALING” (Board of Supervisors of Louisiana State University and …, priority 2018, published 2019)
